In patent US20090280067A1, “CRYSTAL FORM OF 8-HYDROXY-5-[(1R)-1-HYDROXY-2-[[(1R)-2-(4-METHOXYPHENYL)-1-METHYLETHYL]AMINO]ETHYL]-2(1H)-QUINOLINONE MONOHYDROCHLORIDE” (Chiesi Farmaceutici S.p.A., priority 2008, published 2009):

Assay: Stability studies: storage at room temperature under different relative humidity conditions, checked by XRPD pattern
Format: physicochemical
Details: 25° C., 40%, 60%, 80%, 30%, 40% RH, 1 week each
Description: The XRPD analyses were carried out on a PANanalytical X'pert Pro X-ray powder diffractometer using Cu Kα radiation. The instrument was equipped with a X'Celerator detector. A theta-two theta continuous scan from 2.5 degrees 2 theta to 40 degrees 2 theta was used. Each sample is prepared for analysis by placing it in a quartz sample holder. The XPRD patterns are reported in terms of degrees 2 theta (°2θ, accuracy ±0.1°), diffraction peak intensity (height, [cts]), full width at half maximum (FWHM, [°2θ]), interatomic spacing in angstroms (d-spacing, [Å]), and relative intensities (%). The relative intensity is recorded as the ratio of the peak intensity to that of the most intense peak.
In order to check its thermodynamic stability, the CHF 4226 crystal form E was stored at room temperature under different relative humidity (RH) conditions: • 40% RH. and 25° C. for 1 week • 60% RH. and 25° C. for 1 week • 80% RH and 25° C. for 1 week • 60% RH and 25° C. for 1 week • 40% RH and 25° C. for 1 week • 30% RH and 25° C. for 1 week • 40% RH and 25° C. for 1 week. The thermodynamic stability of all the samples was checked by recording their XPRD pattern.

## COc1ccc(C[C@@H](C)NC[C@H](O)c2ccc(O)c3[nH]c(=O)ccc23)cc1.Cl [CHF 4226 crystal form E, 8-hydroxy-5-[(1R)-1-hydroxy-2-[[(1R)-2-(4-methoxyphenyl)-1-methylethyl]amino]ethyl]-2(1H)-quinolinone monohydrochloride]
  thermodynamic stability (XPRD pattern) after storage: stable features under all stability screening conditions
